Converted amounts (≈) assume the structure as drawn. Where two headings read alike, the source gives them in different places.
How the values were obtained:
Type in all cases: cell-based
Candida albicans CCH 442 = test: In vitro antifungal MIC, Candida albicans CCH 442; conditions: Candida albicans CCH 442, 35°-37° C., 48 hours
Procedure: (§1) The in vitro antifungal activity of the compounds of the present invention against a variety of fungiwas determined as follow: Test medium was prepared by dissolving first 5 g of dextrose and then 6.7 g of Bacto Yeast Nitrogen Base® (commercially available from Difco Laboratories) in 100 mL of distilled water. The solution was filter-sterilized and diluted 1:10 with 0.01M pH 8.0 phosphate buffer solution, and the final pH of the medium adjusted to about pH 7.0 when necessary with either 0.1N hydrochloric acid solution of 0.1N sodium hydroxide solution. […] These concentrated stock solutions were diluted to a concentration of 200 μg/mL (twice the highest concentration desired for testing) with the test medium. Amphotericin B, similarly prepared, was used as a reference antifungal agent.
(§2) The test organisms were then inoculated into test tubes containing approximately 3 to 10 mL of test medium and the test tubes incubated overnight at 37° C. A sample of each overnight culture was placed in a test tube and diluted using the test medium until a reading of 95% transmittance was obtained in a conventional UV/visible spectrophotometer set to 560 nm. The adjusted cultures were then diluted 1:50 with test medium. These diluted cultures served as the inocula for the assays which follow and were used within 15 minutes of preparation.
(§3) Next, 2-fold serial dilutions of each test compound in test medium were prepared in a 96-well microtiter plate using calibrated microdiluters attached to an automatic (hand-held) diluter (available from Dynatech Laboratories).
(§4) Using sterile calibrated droppers or a multi-point dispenser, the diluted inoculum suspension was added to each of the wells in the plate. When inoculation was complete, the microtiter tray was covered with a plastic plate sealer to minimize evaporation. After the plate had been sealed, a hole was made above each well with a sterile 26-gauge syringe needle in order to allow gas exchange. If plate sealers were not available, the microtiter trays were stacked in groups of five or less with an empty tray on top. The microtiter trays were then incubated in a humidified chamber at 35°-37° C. for 48 hours or until growth was visible in the growth control wells.
(§5) The minimum inhibitory concentration (MIC) was defined as the lowest concentration of test compound yielding no growth, a slight haze or sparsely isolated colonies on the inoculum spot as compared to the growth control containing no test compound.

Candida kefyr ATCC 28838 = test: In vitro antifungal MIC, Candida kefyr ATCC 28838; conditions: Candida kefyr ATCC 28838, 35°-37° C., 48 hours
Procedure: as §1, §2, §3, §4, §5

[1] = test system: Torulopsis glabrata ATCC 15545; test: In vitro antifungal MIC, Torulopsis glabrata ATCC 15545; conditions: Torulopsis glabrata ATCC 15545, 35°-37° C., 48 hours
Procedure: as §1, §2, §3, §4, §5

[2] = test system: Candida tropicalis NRRL-Y-112; test: In vitro antifungal MIC, Candida tropicalis NRRL-Y-112; conditions: Candida tropicalis NRRL-Y-112, 35°-37° C., 48 hours
Procedure: as §1, §2, §3, §4, §5

[3] = test system: Candida albicans ATCC 38247; test: In vitro antifungal MIC, Candida albicans ATCC 38247; conditions: Candida albicans ATCC 38247, 35°-37° C., 48 hours
Procedure: as §1, §2, §3, §4, §5

[4] = test system: Candida albicans ATCC 62376; test: In vitro antifungal MIC, Candida albicans ATCC 62376; conditions: Candida albicans ATCC 62376, 35°-37° C., 48 hours
Procedure: as §1, §2, §3, §4, §5

[5] = test system: Aspergillus niger ATCC 16404; test: In vitro antifungal MIC, Aspergillus niger ATCC 16404; conditions: Aspergillus niger ATCC 16404, 35°-37° C., 48 hours
Procedure: as §1, §2, §3, §4, §5

Candida albicans 579A = test: In vitro antifungal MIC, Candida albicans 579A; conditions: Candida albicans 579A, 35°-37° C., 48 hours
Procedure: as §1, §2, §3, §4, §5

[6] = test system: Candida albicans ATCC 10231; test: In vitro antifungal MIC, Candida albicans ATCC 10231; conditions: Candida albicans ATCC 10231, 35°-37° C., 48 hours
Procedure: as §1, §2, §3, §4, §5

[7] = test system: Cryptococcus albidus ATCC 34140; test: In vitro antifungal MIC, Cryptococcus albidus ATCC 34140; conditions: Cryptococcus albidus ATCC 34140, 35°-37° C., 48 hours
Procedure: as §1, §2, §3, §4, §5

[8] = Kluyveromyces marxianus, ATCC28838, read-out: MIC
[9] = Nakaseomyces glabratus, ATCC15545, read-out: MIC
[10] = Naganishia albida, ATCC34140, read-out: MIC

Row | Compound | MIC (Candida albicans CCH 442) | MIC (Candida kefyr ATCC 28838) | MIC [1] | MIC [2] | MIC [3] | MIC [4] | MIC [5] | MIC (Candida albicans 579A) | MIC [6] | MIC [7] | MIC (Candida albicans CCH 442; CCH442, read-out: MIC) | MIC (Candida kefyr ATCC 28838; [8]) | MIC [1, 9] | MIC ([2]; NRRLY112, read-out: MIC) | MIC ([3]; ATCC38247, read-out: MIC) | MIC ([4]; ATCC62376, read-out: MIC) | MIC ([5]; ATCC16404, read-out: MIC) | MIC (Candida albicans 579A; read-out: MIC) | MIC ([6]; ATCC10231, read-out: MIC) | MIC [7, 10]
1 | 2-n-octyl-5-methyl-1,3,2-benzodithiazole-1-oxide; 2-n-octyl-6-methyl-1,3,2-benzodithiazole-1-oxide [Example 40] | 3.12 µg/mL | 0.78 µg/mL | 3.12 µg/mL | 3.12 µg/mL | 0.2 µg/mL | 1.56 µg/mL | 1.56 µg/mL | 0.78 µg/mL | 1.56 µg/mL | 3.12 µg/mL | – | – | – | – | – | – | – | – | – | –
2 | 2-phenylmethyl-5-methyl-1,3,2-benzodithiazole-1-oxide; 2-phenylmethyl-6-methyl-1,3,2-benzodithiazole-1-oxide [Example 41] | 3.12 µg/mL | 0.78 µg/mL | 3.12 µg/mL | 3.12 µg/mL | 0.39 µg/mL | 1.56 µg/mL | 1.56 µg/mL | 0.78 µg/mL | 1.56 µg/mL | 6.25 µg/mL | – | – | – | – | – | – | – | – | – | –
3 | [O-][S+]1c2ccccc2SN1CCc1ccccc1 (stereo not shown) [Example 1, 2-(2-Phenylethyl)-1,3,2-benzodithiazole-1-oxide] | – | – | – | – | – | – | – | – | – | – | 1.56 µg/mL (≈ 5.66 µM) | 0.78 µg/mL (≈ 2.83 µM) | 1.56 µg/mL (≈ 5.66 µM) | 3.12 µg/mL (≈ 11.3 µM) | 1.56 µg/mL (≈ 5.66 µM) | 0.78 µg/mL (≈ 2.83 µM) | 3.12 µg/mL (≈ 11.3 µM) | 0.39 µg/mL (≈ 1.42 µM) | 0.78 µg/mL (≈ 2.83 µM) | 3.12 µg/mL (≈ 11.3 µM)
4 | CN1Sc2ccccc2[S+]1[O-] (stereo not shown) [Example 2, 2-methyl-1,3,2-benzodithiazole-1-oxide] | – | – | – | – | – | – | – | – | – | – | 1.56 µg/mL (≈ 8.42 µM) | 1.56 µg/mL (≈ 8.42 µM) | 0.78 µg/mL (≈ 4.21 µM) | 1.56 µg/mL (≈ 8.42 µM) | – | 0.78 µg/mL (≈ 4.21 µM) | 3.12 µg/mL (≈ 16.8 µM) | 1.56 µg/mL (≈ 8.42 µM) | 1.56 µg/mL (≈ 8.42 µM) | 3.12 µg/mL (≈ 16.8 µM)
5 | CCCN1Sc2ccccc2[S+]1[O-] (stereo not shown) [Example 3, 2-n-propyl-1,3,2-benzodithiazole-1-oxide] | – | – | – | – | – | – | – | – | – | – | 0.78 µg/mL (≈ 3.66 µM) | 0.2 µg/mL (≈ 0.938 µM) | 0.78 µg/mL (≈ 3.66 µM) | 0.78 µg/mL (≈ 3.66 µM) | 3.12 µg/mL (≈ 14.6 µM) | 0.78 µg/mL (≈ 3.66 µM) | 6.25 µg/mL (≈ 29.3 µM) | 0.78 µg/mL (≈ 3.66 µM) | 0.78 µg/mL (≈ 3.66 µM) | 3.12 µg/mL (≈ 14.6 µM)
6 | CCCCCN1Sc2ccccc2[S+]1[O-] (stereo not shown) [Example 4, 2-n-pentyl-1,3,2-benzodithiazole-1-oxide] | – | – | – | – | – | – | – | – | – | – | 0.78 µg/mL (≈ 3.23 µM) | 0.78 µg/mL (≈ 3.23 µM) | 0.78 µg/mL (≈ 3.23 µM) | 50 µg/mL (≈ 207 µM) | 3.12 µg/mL (≈ 12.9 µM) | 0.78 µg/mL (≈ 3.23 µM) | 0.39 µg/mL (≈ 1.62 µM) | 0.78 µg/mL (≈ 3.23 µM) | 0.78 µg/mL (≈ 3.23 µM) | 6.25 µg/mL (≈ 25.9 µM)
7 | CCCCCCCN1Sc2ccccc2[S+]1[O-] (stereo not shown) [Example 5, 2-n-heptyl-1,3,2-benzodithiazole-1-oxide] | – | – | – | – | – | – | – | – | – | – | 0.78 µg/mL (≈ 2.89 µM) | 0.39 µg/mL (≈ 1.45 µM) | 0.39 µg/mL (≈ 1.45 µM) | 0.78 µg/mL (≈ 2.89 µM) | 0.78 µg/mL (≈ 2.89 µM) | 0.78 µg/mL (≈ 2.89 µM) | 0.39 µg/mL (≈ 1.45 µM) | 0.2 µg/mL (≈ 0.742 µM) | 0.39 µg/mL (≈ 1.45 µM) | 3.12 µg/mL (≈ 11.6 µM)
8 | CCCCCCCCN1Sc2ccccc2[S+]1[O-] (stereo not shown) [Example 6, 2-n-octyl-1,3,2-benzodithiazole-1-oxide] | – | – | – | – | – | – | – | – | – | – | 0.2 µg/mL (≈ 0.706 µM) | 0.1 µg/mL (≈ 0.353 µM) | 0.2 µg/mL (≈ 0.706 µM) | 0.2 µg/mL (≈ 0.706 µM) | 0.39 µg/mL (≈ 1.38 µM) | 0.1 µg/mL (≈ 0.353 µM) | 0.2 µg/mL (≈ 0.706 µM) | 0.2 µg/mL (≈ 0.706 µM) | 0.2 µg/mL (≈ 0.706 µM) | 3.12 µg/mL (≈ 11 µM)

— patent US5140018A, “1,3,2-benzodithiazole-1-oxide compounds” (Abbott Laboratories, priority 1991, dated 1992)
